Reference: patent US11634381B2, “RUNX2 transcription factor inhibitors and uses thereof” (University of Maryland, Baltimore, priority 2015, dated 2023)
Where a SMILES comes first, the peptide text is derived from it. The star is where a group is joined. Cbz = O=C(OCc1ccccc1)*

What was measured:
[1] = test system: MCF7 RUNX2 Tet.OFF cells; assay: Suspension culture tumorsphere formation; assay type: cell-based, human; conditions: TAZ siRNA, TGFβ, 12 days
Description: MCF7 Tet.OFF cells were grown in the presence (+Dox, RUNX2 negative) or absence (−Dox, RUNX2 positive) of doxycycline for 3 days. Cells were then scraped and counted. 60,000 cells were plated in each well of a 6-well ultra-low attachment plate (Corning; 3471) in Promocell Basal Medium (Promocell; c-22211) complete with Supplement Mix (Promocell; c-39216). Cells were then treated with or without 2 ng/mL TGFβ (R&D Systems; 240-B-002). After growth for 10-15 days, wells were photographed and tumorsphere diameters were measured from photographic images (mm). Colony diameters were calculated using the formula: (L+W)/2. Representative photographs were obtained at 4× magnification. […] For TAZ siRNA knockdown experiments, TAZ siRNA was transfected (as below) into MCF7 Tet.OFF cells and 24 hr later cells were scraped and placed into suspension as described above. Small-Interfering RNA (siRNA) pool targeting RUNX1, RUNX2, and non-targeting control were purchased from Dharmacon, and transfected into cells using RNAiMAX Reagent (Invitrogen). Western blot analysis was performed 48 hrs after transfection.

[2] = test system: TAZ; assay: siRNA mediated knockdown of TAZ (Western blot); assay type: cell-based, human; conditions: MCF7 Tet.OFF cells, low or high RUNX2
Description: TAZ knockdown was performed in MCF7 Tet.OFF cells using Custom 23 mer desalted siRNA oligonucleotides from Sigma and a Universal Scrambled Negative Control siRNA Duplex from Origene (Catalog No. SR30004): TAZ siRNA #1: 5′-GACA […]-3′ (SEQ ID NO: 1), TAZ siRNA #2: 5′-[…] GAACAUU-3′ (SEQ ID NO: 2) and TAZ siRNA #3: 5′-[…]-3′ (SEQ ID NO: 3). Briefly, MCF7 Tet.OFF cells were grown in the absence or presence of doxycycline for 3 days and then transfected with corresponding siRNA's using Lipofectamine-2000 (Life Technologies). RIPA extracts were obtained 48 hr post transfection and total protein was analyzed by Western blot (see above) and probed for TAZ protein expression. Protein levels were normalized to actin and quantified using NIH Image-J software.

[3] = biological target: RUNX2 (Homo sapiens, UniProt Q13950); assay: Western blot of RUNX2, RUNX1, CBF-β; assay type: cell-based; set-up: endogenous in cells; host or cells: MDA-231, MDA-468; conditions: MDA-468 and MCF7 cells, MG132 10 μM alone, 18 hrs
Chain of RUNX2 (Q13950 whole entry): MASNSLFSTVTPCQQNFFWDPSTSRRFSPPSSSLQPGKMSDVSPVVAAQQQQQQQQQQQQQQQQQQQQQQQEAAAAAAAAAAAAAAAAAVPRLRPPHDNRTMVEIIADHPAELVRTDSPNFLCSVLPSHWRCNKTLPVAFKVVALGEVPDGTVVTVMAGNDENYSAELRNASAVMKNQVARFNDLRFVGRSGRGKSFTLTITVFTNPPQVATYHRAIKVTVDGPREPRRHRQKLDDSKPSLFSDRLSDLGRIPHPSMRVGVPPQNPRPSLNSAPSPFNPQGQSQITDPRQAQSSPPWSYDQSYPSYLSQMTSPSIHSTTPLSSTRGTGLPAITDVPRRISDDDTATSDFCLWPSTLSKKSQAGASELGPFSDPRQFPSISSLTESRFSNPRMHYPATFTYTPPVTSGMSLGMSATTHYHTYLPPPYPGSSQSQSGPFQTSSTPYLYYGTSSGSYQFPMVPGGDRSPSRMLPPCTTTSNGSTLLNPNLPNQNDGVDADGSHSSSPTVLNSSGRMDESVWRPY
Description: Whole cell lysates extracted in RIPA buffer (Upstate) were separated on 4-12% gradient SDS-PAGE and transferred to nitrocellulose membrane. The blots were incubated with specific antibodies for each protein overnight at 4° C. After antibody washing, the blots were reacted with their respective secondary antibody and detected with enhanced chemiluminescence reagents (Millipore) according to the supplier's protocol. Antibodies for proteins were purchased as below. RUNX1, RUNX2, CBF-β, ubiquitin and caspase-3 (Cell Signaling Technologies), S451-p-RUNX2 (Bioss Gentaur, Belgium), RUNX3 and Glut-1 (Millipore, Calif.), β-actin and RUNX2 antibody for IHC (Sigma-Aldrich), and Ki-67 for IHC (Bethyl Laboratories, Inc, TX).

[4] = test system: Lats1/2; assay: Lats1/2 phosphorylation (Hippo signaling); assay type: cell-based, human; conditions: HCC1428 cells, rsE-Cad 24 hr
Description: In FIG. 22A HCC1428 luminal BC cells that express E-Cadherin were treated with recombinant soluble E-Cadherin (rsE-Cad) for 24 hr and total cell extracts were analyzed for phosphorylation of the Lats1/2 tumor suppressors. Phospho.Lats1/2 and total Lats1/2 levels declined with rsE-Cad treatment consistent with TAZ translocation to the nucleus, where it acts as an oncogene with RUNX2. […] MCF7 cells expressing RUNX2 (Tet.OFF) were treated with compound 1 drug for 24 hours and total cell extracts were analyzed for phosphp.Lats1/2, total Lats1/2, and RUNX2 expression.

Molecule	tumorsphere size ([1]; RUNX2 negative cells)	tumorsphere size ([1]; RUNX2 positive cells) [mm]	TAZ knockdown to levels of control (scrambled siRNA) [2]	RUNX2 protein stability [3]	phosphorylation of the Lats1/2 tumor suppressors [4]
5′-GACA UGAGAUCCAUCACUAUU-3′ (GACAUGAGAUCCAUCACUAUU; listed as RNA, chemistry not given here) [TAZ siRNA #1]	4.85±2.11 mm	4.43±1.47	70-80%	–	–
CC(C)C[C@@H](C=O)NC(=O)[C@H](CC(C)C)NC(=O)[C@H](CC(C)C)NC(=O)OCc1ccccc1 [MG132, reference compound] (Cbz-Leu-Leu-Leu-aldehyde)	–	–	–	increased	–
5′-AAGCCUAGCUCGUGGCGGAUU-3′ (listed as RNA, chemistry not given here) [TAZ siRNA #3]	no significant effect	6.05±3.12	30%	–	–
5′-GGACAAACACCCAU GAACAUU-3′ (GGACAAACACCCAUGAACAUU; listed as RNA, chemistry not given here) [TAZ siRNA #2]	5.16±1.91 mm	5.35±2.42	50-70%	–	–
recombinant soluble E-Cadherin: recombinant soluble E-Cadherin (rsE-Cad) (protein, UniProt P12830 155-709, looked up, extracellular domain) extracellular domain: DWVIPPISCPENEKGPFPKNLVQIKSNKDKEGKVFYSITGQGADTPPVGVFIIERETGWLKVTEPLDRERIATYTLFSHAVSSNGNAVEDPMEILITVTDQNDNKPEFTQEVFKGSVMEGALPGTSVMEVTATDADDDVNTYNAAIAYTILSQDPELPDKNMFTINRNTGVISVVTTGLDRESFPTYTLVVQAADLQGEGLSTTATAVITVTDTNDNPPIFNPTTYKGQVPENEANVVITTLKVTDADAPNTPAWEAVYTILNDDGGQFVVTTNPVNNDGILKTAKGLDFEAKQQYILHVAVTNVVPFEVSLTTSTATVTVDVLDVNEAPIFVPPEKRVEVSEDFGVGQEITSYTAQEPDTFMEQKITYRIWRDTANWLEINPDTGAISTRAELDREDFEHVKNSTYTALIIATDNGSPVATGTGTLLLILSDVNDNAPIPEPRTIFFCERNPKPQVINIIDADLPPNTSPFTAELTHGASANWTIQYNDPTQESIILKPKMALEVGDYKINLKLMDNQNKDQVTTLEVSVCDCEGAAGVCRKAQPVEAGLQIPA	–	–	–	–	decline in phosphorylation
